Experimental data reported in PubChem BioAssay (NCI).
Where “and” joins values, the source holds several entries; their conditions need not be identical. Equal entries are not always repeated.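 A five-concentration, 48-hour dose response in 96-well plates underlies each endpoint, interpolated linearly between surrounding concentrations. GI50 is the concentration that inhibits growth by half. At the TGI there is no net growth.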

Key:
Assay in all cases: NCI-60 cell line screen, 48 h
[1] = tested on: HL-60(TB) leukemia
[2] = tested on: HOP-62 NSCLC
[3] = tested on: KM12 colon
[4] = tested on: M14 melanoma
[5] = tested on: OVCAR-3 ovarian
[6] = tested on: OVCAR-4 ovarian
[7] = tested on: PC-3 prostate
[8] = tested on: RXF 393 renal
[9] = tested on: SF-539 CNS
[10] = tested on: SK-MEL-28 melanoma

| SMILES | GI50 [1] [µM] | TGI [1] [µM] | GI50 [2] [µM] | TGI [2] [µM] | GI50 [3] [µM] | TGI [3] [µM] | GI50 [4] [µM] | TGI [4] [µM] | GI50 [5] [µM] | TGI [5] [µM] | GI50 [6] [µM] | TGI [6] [µM] | GI50 [7] [µM] | TGI [7] [µM] | GI50 [8] [µM] | TGI [8] [µM] | GI50 [9] [µM] | TGI [9] | GI50 [10] [µM] | TGI [10] [µM] |
| --- | --- | --- | --- | --- | --- | --- | --- | --- | --- | --- | --- | --- | --- | --- | --- | --- | --- | --- | --- | --- |
| COC(=O)[C@H](Cc1cn(C)cn1)NC(=O)[C@H](CC(C)C)NC(=O)Nc1cc(C(F)(F)F)cc(C(F)(F)F)c1 | > 10 | > 10 | > 10 | > 10 | > 10 | > 10 | > 10 | > 10 | 2.23 | 4.82 | > 10 | > 10 | 4.64 | > 10 | 3.46 | > 10 | > 10 | > 10 µM | 8 | > 10 |
| CCCCCCCCCCCCCCCCn1cc[n+](C)c1 | 0.129 | 0.321 | 0.443 | 1.73 | 0.264 | 0.756 | 0.268 | 1.3 | 0.286 | 1.02 | 0.372 | 17.8 | 0.183 | 0.58 | 0.252 | 0.907 | 1.16 | 2.38 µM | 0.707 | 2.05 |
| COc1cc2c3c(n(CCCN=[N+]=[N-])c(=O)c2cc1OC)-c1ccc(F)cc1C3=O | 44.4 | > 100 | 4.18 | > 100 | 41.2 | > 100 | 5.16 | > 100 | 6.11 | > 100 | 55.9 | > 100 | 6.63 | > 100 | > 100 | > 100 | 3.23 | 12.4 µM | 49.2 | > 100 |
| Oc1ccc(N=Nc2ccc(Br)cc2)c(O)c1 | 1.71 | 4.53 | 3.9 | 19.5 | 3.31 | 39.8 | 2.2 | 5.62 | 3.2 | 14.7 | 6.31 | > 100 | 3.08 | 21.7 | 1.19 | 9.56 | 1.93 | 5.14 µM | 7.97 | > 100 |
| O=CN/C=C/c1ccccc1 |  | > 100 |  | > 100 |  | > 100 |  | > 100 |  | > 100 |  | > 100 |  | > 100 |  | > 100 |  | > 100 µM |  | > 100 |
| CC(C)[C@@]12C[C@@H](OC(=O)C3CO3)[C@@](C)(O1)[C@@H]1CC[C@@H](C)[C@H]1[C@@H]2OC(=O)/C=C/c1ccccc1 (stereo not given in full) | 22.7 | 68.3 | 21.2 | > 100 | 18.7 | 38.1 | 24.4 | 88.5 | 15.8 | 30 | 13.2 | 26.6 | 17.4 | 61 | 7.86 | 22.4 | 16.4 | 31.4 µM | 18.4 | 37.9 |
| O=C(Nc1ccc(I)cc1F)c1cc(Br)ccc1O | 0.472 | 3.5 | 2.03 | 7.04 | 2.2 | 5.49 | 0.603 | 4.49 | 0.457 | 11.3 | 0.442 | > 23.1 | 1.77 | 7.13 | 0.778 | 3.6 | 0.583 | 3.74 µM | 0.393 | 2.04 |
| COc1cc(CSc2nc3ccc(Cl)cc3c(=O)n2Cc2ccccc2)cc(OC)c1OC | 4.11 | > 100 | 2.88 | 18.2 | 2.9 | > 100 | 4.26 | > 100 | 3.2 | 11.6 | 4.99 | > 100 | 3.48 | > 100 | 3.15 | 13.4 | 2.57 | 9.34 µM | 3.05 | 43.9 |
| O=C1CN=C(c2ccc[nH]2)c2cc(Cl)ccc2N1 | 4.16 | > 100 | > 100 | > 100 | > 100 | > 100 | > 100 | > 100 | > 100 | > 100 | > 100 | > 100 | 93.4 | > 100 | > 100 | > 100 | > 100 | > 100 µM | > 100 | > 100 |
| CCOC(=O)c1ccc(N2NC(=O)/C(=C/c3ccc([N+](=O)[O-])o3)C2=O)cc1 | 11.7 | 47.4 | 29.9 | > 55.7 | > 40.7 | > 55.3 | 17 | 31.6 | 6.82 | 17.1 | 17 | 30.9 | 21.3 | 55.8 | 11.3 | 26 | 18.8 | 46 µM | 18.6 | 36 |
| CC[C@]12CN3CCc4c([nH]c5ccccc45)[C@@](C(=O)OC)(c4cc5c(cc4OC)N(C)[C@H]4[C@@](O)(C(=O)OC)[C@H](OC(C)=O)[C@]6(CC)C=CCN7CC[C@]54[C@@H]76)CC(C3)[C@H]1O2 (stereo not given in full) | 0.088 |  | 0.121 | 26.9 | 0.105 |  | 0.239 | 25.1 | 0.0445 |  | 0.327 | > 100 | 0.222 | > 100 |  | > 100 | 0.128 | 1.8 µM and 9.39 µM |  | 93.1 |
| Cc1ccc(/C(=N/NS(=O)(=O)c2cc(C)c(Cl)cc2Cl)Sc2cc(Cl)c(C)cc2S(N)(=O)=O)cc1 | 70 | > 100 | > 100 | > 100 | > 100 | > 100 | > 100 | > 100 | 59 | > 100 | > 100 | > 100 | > 100 | > 100 | 90.9 | > 100 | > 100 | > 100 µM | > 100 | > 100 |
| CCc1cc2c(c(OCC(F)(F)F)c(C(=O)NC3CCN(C(=O)CO)CC3)n2C)c(=O)n1CC(=O)c1ccccc1 | 59.3 | > 100 | > 80.9 | > 100 | 58.5 | > 100 | > 100 | > 100 | > 100 | > 100 | > 72.2 | > 100 | > 73.5 | > 100 | 11.2 | 42.7 | 36.5 | > 100 µM | 70.4 | > 100 |
| Cc1cccc2c(=O)c3c(sc12)c(NCCCNCCO)nc1ccccc13 | 1.82 | 3.49 | 1.22 | 2.75 | 1.72 | 3.25 | 1.81 | 3.56 | 1.74 | 3.26 | 1.8 | 3.44 | 1.29 | 2.75 | 1.51 | 2.89 | 1.71 | 3.09 µM | 1.73 | 3.18 |
| CCCCCN(CCCCC)CCC[C@@H](C)[C@H]1CC[C@H]2[C@@H]3[C@H](OCCCN)C[C@@H]4C[C@H](OCCCN)CC[C@]4(C)[C@H]3C[C@H](OCCCN)[C@]12C | 2.14 | 5.81 | 5.23 | 23.5 | 3.59 | 17 | 6.03 | 22.5 | 17 | 36.1 | 14.3 | 32.6 | 11.6 | 24.8 | 11.9 | 32.7 | 1.94 | 4.3 µM | 2.46 | 12.5 |
| CCn1nc(C2CCN(C(=O)CCO)CC2)nc1-c1cnc(N)c(-c2nnc(C(C)(C)C)o2)n1 | 0.263 | 97.5 | 5.01 | > 100 | 14.9 | 45.1 | 27.7 | > 100 | 7.81 | 38.4 | 53.7 | > 100 | 3.2 | > 100 | 2.45 | 20.9 | 5.74 | > 100 µM | 4.78 | > 100 |
| Cc1nnn(C)c1-c1cnc2c3ccc(C(C)(C)O)cc3n([C@H](c3ccccc3)C3CCOCC3)c2c1 | < 0.01 | 48.1 | < 0.0227 | > 46.9 | 0.141 | > 91.4 | < 0.01 | 30.9 | 0.0271 | 14.8 | 0.033 | > 100 | 0.765 | > 100 | 1.16 | 20.4 | < 0.0182 | 51.1 µM | 1.96 | > 100 |
| COc1ccc(C(=O)/C=C/c2cc(-c3ccc(OC)c(OC)c3)n[nH]2)cc1OC | 2.76 | > 100 | 1.73 | 5.6 | 0.625 | 2.08 | 1.91 | 4.11 | 1.96 | 4.72 | 1.92 | 8.15 | 1.98 | 35.7 | 1.45 | 2.98 | 0.525 | 2.54 µM | 1.82 | 4.82 |
